The values that follow come from patent US20050232891A1, “Methods of treating skin with diphosphonate derivatives” (ILEX Products Inc., priority 2001, published 2005).

The subject of series [1] is HepG2 cells. Put plainly: Stimulation of collagen expression (cDNA microarray), Apomine treated versus control HepG2 cells. The class given is cell-based, human. The conditions noted are these: gene expression; for fold induction at 1 µM: Homo sapiens, HepG2, 1 μM Apomine vs ethanol vehicle control. As to the method: HepG2 cells were grown in Dulbecco's modified Eagle medium (DMEM) supplemented with 10% FBS. Cells were harvested when they were about 80-90% confluent and were directly subjected to RNA isolation. Treated cells were incubated with 1 μM Apomine and control cells were incubated with a volume of ethanol used as vehicle for the Apomine.
DNA microarray slides used in this study were fabricated in the microarray core facilities at the Arizona Cancer Center (Calaluce et al., 2001). Each slide has 5760 spots divided into 4 blocks. Each block contains the same 8 ice plant genes from Mesembryanthemum crystallinum and 23 different housekeeping genes as references for data normalization. Overall, each slide has 5289 unique human cDNA sequences.
Poly(A)^+ RNA was directly isolated from cell pellets using the FastTrack 2.0 Kit (Invitrogen, Carsbad, Calif.) following the instruction manual provided by the manufacturer. Each RNA sample was inspected by denaturing agarose gel electrophoresis to ensure the quality of the preparation. Labeling and purification of cDNA probes were carried out using the MICROMAX direct cDNA microarray system (NEN Life Science Products, Boston, Mass.). Two to four micrograms of the poly(A)+ RNA samples were used for each labeling. Probes for Apomine treated HepG2 cells were labeled with Cyanine 5 (Cy5) and probes for HeLa cell was labeled with Cyanine 3 (Cy3). For investigation of control Hep2G cells, these cells were labeled with Cy3 and probes for HeLa cells were labeled with Cy5. Purified cDNA probes were dried and dissolved in 15 μL of Hybridization Buffer (included in the MICROMAX direct cDNA microarray system kit). The probes were then denatured by heating at 95° C. for 2 min and applied to the array area of a pre-denatured microarray slide. The microarray slide was covered with a […] slide cover slip and incubated in a HybChamber (GeneMachines, San Carlos, Calif.) at 62° C. for overnight. On the second day, the slide was washed in 0.5×SSC, 0.01% SDS for 5 min, 0.06×SSC, 0.01% SDS for 5 min, and 0.06×SCC for 2 min. Finally, the slide was dried by spinning at 500 g for 1 min and scanned in a dual-laser (635 nm for red fluorescent Cy5 and 532 nM for green fluorescent Cy3) microarray scanner (GenePix 4000, Axon Instruments, Foster City, Calif.).
Fluorescence intensities for both dyes (Cy3 and Cy5) and local background subtracted values for individual spots were obtained using the GenePix 4000 microarray scanner and accompanying software (Axon Instruments, Foster City, Calif.). The data were imported into Microsoft Excel spreadsheets for analysis. Defective spots, i.e., ones that are sub-standard on the scanned image or have negative background subtracted values, were first filtered. To minimize the effects of measurement variations introduced by artificial sources during experiments, only spots that had significant signals in both channels were included. The determination of this significance is based on signal intensities of non-homologous ice plant genes. Generally, if the signal intensity of a spot is less than the average of ice plant spots, the signal was considered as non-significant. In this analysis the significance cutoff for signal to background ratio as 1.4 was determined empirically. Thus, a spot was excluded in further analysis if it has a signal to background ratio less than 1.4 in both channels. For each spot, the median of ratios (the median of the pixel-by-pixel ratios of pixel intensities that have the median background intensity subtracted) was used in subsequent analysis. Spots representing housekeeping genes were used to normalize the entire slide so that all slides can be compared directly. For each pancreatic cell line, at least two hybridizations were carried out. The average of median ratios from replicates was calculated for each spot. […]

The nature of series [2]: Percutaneous absorption of Apomine: plasma level after topical application. The class given is in vivo, female Swiss nude (nu/nu) mice. To be noted: female, Swiss nude (nu/nu), mouse, three hours after the last application. Here is the method: Plasma concentrations of Apomine are measured with a Hewlett Packard gas chromatograph using a nitrogen phosphorus detector and HP-5 15 m×0.32 mm column. Alberts et al., 2001). Apomine is extracted from plasma with methyl t-butyl ether (MTBE). To 250 μl of plasma sample, 10 μl of a methanolic solution of the internal standard (n-propyl phoposhonate analog of Apomine) at a final concentration of 4 μg/ml are added and mixed by vortexing. The compound and internal standard are extracted with 500 μl MTBE and 30 sec vigorous shaking. The organic layer obtained by centrifugation (5 min at 13,000 rpm) is dried under nitrogen and reconstituted in 250 μl MTBE of which 2 μl is injected with an autoampler for analysis. A calibration curve is established with plasma from untreated mice spiked with different concentrations of Apomine. The calibration curve is used to interpolate the concentrations of Apomine in the samples using the peak area ratio values.
Apomine (1 mg) was topically applied to five to six week old female Swiss nude (nu/nu) mice by application of 20 μl of a 50 mg/ml solution of Apomine in acetone. Treatment was continued daily for 24 days. Three hours after the last application the mice were sacrificed and plasma Apomine levels were measured. The plasma concentration was 1.12±0.10 μg/ml plasma (n=6), which is 2 μM Apomine. […]

The conditions of series [3]: patients, 75 mg/m^2 twice a day orally for 14 days; cited from earlier work.

Structures are written as SMILES. Read-outs that look alike come from different tables or passages of the source.

Turning to `CC(C)OP(=O)(OC(C)C)C(Cc1cc(C(C)(C)C)c(O)c(C(C)(C)C)c1)P(=O)(OC(C)C)OC(C)C` [Apomine, tetraisopropyl 2-(3,5-di-tert-butyl-4-hydroxyphenyl)-ethylidene-1,1-diphosphonate], the “Fold induction, Procollagen, type III” value in series [1] (1 μM Apomine vs ethanol vehicle control) turned out to be 6.49 fold. Besides, the fold induction at 1 µM turned out to be 1.65 in series [1] (read-out: Fold induction, Collagen, type I, alpha 2); 5.5 in series [1] (read-out: Fold induction, Collagen, type II, alpha 1); 1.7 in series [1] (read-out: Fold induction, Collagen, type IV, alpha 4); 1.4 in series [1] (read-out: Fold induction, Collagen, type IX, alpha 3); 1.42 in series [1] (read-out: Fold induction, Collagen, type V, alpha 1); 2.4 in series [1] (read-out: Fold induction, Collagen, type VI, alpha 2). Also, the fold induction at 1 µM was 1.16 in series [1] (read-out: Fold induction, Collagen, type VI, alpha 3); 2.66 in series [1] (read-out: Fold induction, Collagen, type XI, alpha 1); more than 6 in series [1] (read-out: Fold induction, Procollagen, type III). In addition, the concentration at 3 h in series [2] (1 mg topically (20 μl of 50 mg/ml in acetone) daily for 24 days, n=6) is 1120 ± 100 ng/mL; in series [2] (1 mg topically daily for 24 days), 2000 nM. Further, the adverse effects result in series [3] is reported as “no adverse effects”.
